Measurements: ChEMBL document CHEMBL4507281, “Data for DCP probe BI-4394” (2021)

How the values were obtained:
Conditions in all cases: Compound concentration 100.0 nM
[1] = test system: Tyrosine-protein kinase ABL1 (Homo sapiens), P00519 [Y253F]
[2] = target: Casein kinase I isoform epsilon (Homo sapiens) (UniProt P49674)
[3] = test system: ALK tyrosine kinase receptor (Homo sapiens), Q9UM73 [C1156Y]
[4] = target: Eukaryotic translation initiation factor 2-alpha kinase 1 (Homo sapiens) (UniProt Q9BQI3)
Eukaryotic translation initiation factor 2-alpha kinase 1 (Homo sapiens), sequence (Q9BQI3 whole entry): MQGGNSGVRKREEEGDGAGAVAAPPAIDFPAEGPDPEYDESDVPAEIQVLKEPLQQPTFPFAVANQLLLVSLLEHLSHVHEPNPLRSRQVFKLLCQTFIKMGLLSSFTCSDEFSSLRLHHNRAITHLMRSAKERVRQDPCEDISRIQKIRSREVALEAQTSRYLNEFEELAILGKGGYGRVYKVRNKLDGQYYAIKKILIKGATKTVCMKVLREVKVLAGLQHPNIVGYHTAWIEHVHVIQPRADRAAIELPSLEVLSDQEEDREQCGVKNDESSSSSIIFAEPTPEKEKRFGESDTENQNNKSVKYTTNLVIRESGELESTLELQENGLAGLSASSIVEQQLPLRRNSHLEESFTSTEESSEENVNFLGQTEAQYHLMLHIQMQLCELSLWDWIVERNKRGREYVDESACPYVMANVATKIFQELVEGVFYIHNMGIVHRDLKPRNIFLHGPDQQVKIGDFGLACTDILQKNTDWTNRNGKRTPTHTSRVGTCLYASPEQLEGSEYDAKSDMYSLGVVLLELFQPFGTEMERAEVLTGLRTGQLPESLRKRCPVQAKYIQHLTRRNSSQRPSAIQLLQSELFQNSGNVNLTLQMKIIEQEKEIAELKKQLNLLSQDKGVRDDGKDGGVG

[5] = target: Ephrin type-B receptor 4 (Homo sapiens) (UniProt P54760)
Ephrin type-B receptor 4 (Homo sapiens), sequence (P54760 whole entry): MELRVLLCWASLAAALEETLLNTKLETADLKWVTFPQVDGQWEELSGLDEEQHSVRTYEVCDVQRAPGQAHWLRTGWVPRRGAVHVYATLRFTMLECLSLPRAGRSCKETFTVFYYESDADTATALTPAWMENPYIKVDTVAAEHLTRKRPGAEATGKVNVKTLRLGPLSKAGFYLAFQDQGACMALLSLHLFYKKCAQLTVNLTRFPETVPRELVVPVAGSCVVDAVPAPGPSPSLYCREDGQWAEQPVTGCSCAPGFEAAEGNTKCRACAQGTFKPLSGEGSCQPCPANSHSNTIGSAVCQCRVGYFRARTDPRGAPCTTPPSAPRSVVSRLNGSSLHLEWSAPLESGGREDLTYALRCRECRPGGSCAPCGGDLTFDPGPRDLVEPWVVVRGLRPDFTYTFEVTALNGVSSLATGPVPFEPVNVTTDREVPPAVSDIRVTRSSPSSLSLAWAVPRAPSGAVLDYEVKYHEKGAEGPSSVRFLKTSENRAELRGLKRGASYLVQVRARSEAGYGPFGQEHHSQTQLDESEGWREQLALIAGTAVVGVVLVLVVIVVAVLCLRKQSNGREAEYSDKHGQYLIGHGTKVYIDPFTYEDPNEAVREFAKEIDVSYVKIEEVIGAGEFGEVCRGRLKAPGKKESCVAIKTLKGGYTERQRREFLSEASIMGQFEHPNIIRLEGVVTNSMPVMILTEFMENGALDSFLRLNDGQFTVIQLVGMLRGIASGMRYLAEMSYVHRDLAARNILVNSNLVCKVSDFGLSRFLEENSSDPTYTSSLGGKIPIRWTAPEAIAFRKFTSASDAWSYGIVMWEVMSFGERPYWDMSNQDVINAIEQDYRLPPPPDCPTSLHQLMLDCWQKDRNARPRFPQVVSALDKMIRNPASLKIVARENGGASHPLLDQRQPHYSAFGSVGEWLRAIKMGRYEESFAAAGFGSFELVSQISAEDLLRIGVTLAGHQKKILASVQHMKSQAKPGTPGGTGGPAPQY

[6] = target: Mitogen-activated protein kinase kinase kinase 20 (Homo sapiens) (UniProt Q9NYL2)
[7] = target: Serine/threonine-protein kinase OSR1 (Homo sapiens) (UniProt O95747)
[8] = target: Mitogen-activated protein kinase kinase kinase 10 (Homo sapiens) (UniProt Q02779)
[9] = target: Casein kinase I isoform gamma-2 (Homo sapiens) (UniProt P78368)
[10] = target: Non-receptor tyrosine-protein kinase TNK1 (Homo sapiens) (UniProt Q13470)
Non-receptor tyrosine-protein kinase TNK1 (Homo sapiens), sequence (Q13470 whole entry): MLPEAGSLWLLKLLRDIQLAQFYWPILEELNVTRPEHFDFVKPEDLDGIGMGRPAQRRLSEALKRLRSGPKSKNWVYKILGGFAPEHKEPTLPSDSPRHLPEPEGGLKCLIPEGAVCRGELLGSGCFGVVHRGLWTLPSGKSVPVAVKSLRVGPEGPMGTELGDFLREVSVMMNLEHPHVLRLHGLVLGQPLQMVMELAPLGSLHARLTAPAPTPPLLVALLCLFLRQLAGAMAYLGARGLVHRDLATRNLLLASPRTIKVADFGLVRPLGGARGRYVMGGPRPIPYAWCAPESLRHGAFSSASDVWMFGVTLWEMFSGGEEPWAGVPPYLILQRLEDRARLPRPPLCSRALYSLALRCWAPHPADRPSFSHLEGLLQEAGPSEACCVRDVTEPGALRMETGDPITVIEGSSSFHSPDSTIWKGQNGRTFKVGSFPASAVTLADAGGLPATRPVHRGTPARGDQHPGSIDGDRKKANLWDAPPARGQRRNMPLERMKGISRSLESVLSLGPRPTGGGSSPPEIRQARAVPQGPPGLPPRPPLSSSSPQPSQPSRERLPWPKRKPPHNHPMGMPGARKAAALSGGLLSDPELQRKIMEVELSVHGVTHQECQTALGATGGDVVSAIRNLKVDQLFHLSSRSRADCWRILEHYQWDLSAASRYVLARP

[11] = target: Receptor tyrosine-protein kinase erbB-3 (Homo sapiens) (UniProt P21860)
[12] = target: Dual specificity protein kinase TTK (Homo sapiens) (UniProt P33981)
Dual specificity protein kinase TTK (Homo sapiens), sequence (P33981 whole entry): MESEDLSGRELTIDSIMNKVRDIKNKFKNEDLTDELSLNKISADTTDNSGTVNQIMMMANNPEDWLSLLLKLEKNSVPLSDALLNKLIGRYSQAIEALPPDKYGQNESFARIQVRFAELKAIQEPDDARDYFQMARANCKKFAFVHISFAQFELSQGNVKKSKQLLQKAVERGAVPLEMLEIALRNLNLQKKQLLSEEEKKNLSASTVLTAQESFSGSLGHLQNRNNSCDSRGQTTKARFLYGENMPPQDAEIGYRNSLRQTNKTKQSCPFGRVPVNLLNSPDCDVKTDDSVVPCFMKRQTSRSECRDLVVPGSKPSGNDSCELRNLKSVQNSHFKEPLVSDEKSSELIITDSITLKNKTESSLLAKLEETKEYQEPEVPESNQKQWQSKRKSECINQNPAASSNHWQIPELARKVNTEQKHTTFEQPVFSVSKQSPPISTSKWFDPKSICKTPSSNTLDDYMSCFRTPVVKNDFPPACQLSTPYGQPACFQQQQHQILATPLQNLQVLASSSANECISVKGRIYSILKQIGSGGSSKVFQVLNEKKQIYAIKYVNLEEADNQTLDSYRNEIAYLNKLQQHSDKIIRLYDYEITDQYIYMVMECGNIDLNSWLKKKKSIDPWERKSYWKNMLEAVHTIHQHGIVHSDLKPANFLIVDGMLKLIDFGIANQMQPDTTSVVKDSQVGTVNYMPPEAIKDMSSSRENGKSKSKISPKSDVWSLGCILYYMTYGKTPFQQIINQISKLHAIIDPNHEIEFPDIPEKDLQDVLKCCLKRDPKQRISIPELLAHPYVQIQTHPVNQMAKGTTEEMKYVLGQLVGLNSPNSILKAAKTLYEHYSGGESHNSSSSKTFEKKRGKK

[13] = target: Calcium/calmodulin-dependent protein kinase type 1D (Homo sapiens) (UniProt Q8IU85)
[14] = target: Maternal embryonic leucine zipper kinase (Homo sapiens) (UniProt Q14680)
[15] = target: Protein kinase C iota type (Homo sapiens) (UniProt P41743)
Protein kinase C iota type (Homo sapiens), sequence (P41743 whole entry): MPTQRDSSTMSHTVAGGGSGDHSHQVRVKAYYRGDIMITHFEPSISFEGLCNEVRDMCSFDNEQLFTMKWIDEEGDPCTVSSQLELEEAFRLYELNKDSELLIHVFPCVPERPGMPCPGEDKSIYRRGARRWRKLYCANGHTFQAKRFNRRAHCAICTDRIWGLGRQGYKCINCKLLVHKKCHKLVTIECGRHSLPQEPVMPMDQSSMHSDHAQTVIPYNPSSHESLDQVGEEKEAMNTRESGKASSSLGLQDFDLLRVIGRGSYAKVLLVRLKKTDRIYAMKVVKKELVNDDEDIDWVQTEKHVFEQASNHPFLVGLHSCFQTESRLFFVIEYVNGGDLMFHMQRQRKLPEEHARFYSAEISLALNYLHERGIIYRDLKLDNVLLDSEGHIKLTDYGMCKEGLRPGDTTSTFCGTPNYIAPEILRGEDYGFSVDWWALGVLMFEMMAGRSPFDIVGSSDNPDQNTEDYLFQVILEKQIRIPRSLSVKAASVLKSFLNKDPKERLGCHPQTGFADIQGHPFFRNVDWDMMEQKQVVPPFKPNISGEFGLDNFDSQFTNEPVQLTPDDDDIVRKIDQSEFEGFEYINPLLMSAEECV

[16] = target: SRSF protein kinase 1 (Homo sapiens) (UniProt Q96SB4)
[17] = target: Calcium/calmodulin-dependent protein kinase type II subunit beta (Homo sapiens) (UniProt Q13554)
Calcium/calmodulin-dependent protein kinase type II subunit beta (Homo sapiens), sequence (Q13554 whole entry): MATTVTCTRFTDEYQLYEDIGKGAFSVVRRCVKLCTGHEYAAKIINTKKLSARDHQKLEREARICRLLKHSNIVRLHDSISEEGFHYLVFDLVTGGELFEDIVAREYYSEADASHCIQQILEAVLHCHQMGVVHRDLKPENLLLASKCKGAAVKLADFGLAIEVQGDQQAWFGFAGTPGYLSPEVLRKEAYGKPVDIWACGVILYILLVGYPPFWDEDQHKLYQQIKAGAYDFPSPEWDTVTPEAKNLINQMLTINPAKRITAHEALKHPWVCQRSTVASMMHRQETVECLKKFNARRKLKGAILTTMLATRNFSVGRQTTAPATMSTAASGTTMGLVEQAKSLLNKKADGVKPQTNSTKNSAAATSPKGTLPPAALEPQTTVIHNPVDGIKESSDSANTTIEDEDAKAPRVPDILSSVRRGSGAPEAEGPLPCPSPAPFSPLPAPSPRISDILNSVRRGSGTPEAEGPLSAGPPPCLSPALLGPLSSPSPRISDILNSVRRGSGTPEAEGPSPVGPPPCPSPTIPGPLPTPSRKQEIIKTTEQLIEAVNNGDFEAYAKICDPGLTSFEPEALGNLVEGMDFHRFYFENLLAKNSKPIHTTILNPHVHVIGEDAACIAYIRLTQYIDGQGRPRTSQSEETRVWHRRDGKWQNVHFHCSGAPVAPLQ

[18] = test system: Receptor-type tyrosine-protein kinase FLT3 (Homo sapiens), P36888 [N841I]
[19] = target: TGF-beta receptor type-2 (Homo sapiens) (UniProt P37173)
[20] = target: Calcium/calmodulin-dependent protein kinase type II subunit delta (Homo sapiens) (UniProt Q13557)
[21] = test system: Tyrosine-protein kinase ABL1 (Homo sapiens), P00519 [F317L]
[22] = target: Serine/threonine-protein kinase 25 (Homo sapiens) (UniProt O00506)
[23] = test system: Fibroblast growth factor receptor 3 (Homo sapiens), P22607 [G697C]
[24] = target: Serine/threonine-protein kinase SBK1 (Homo sapiens) (UniProt Q52WX2)
[25] = target: G protein-coupled receptor kinase 3 (Homo sapiens) (UniProt P35626)
[26] = target: Ribosomal protein S6 kinase alpha-5 (Homo sapiens) (UniProt O75582)
[27] = target: Cyclin-dependent kinase 4 (Homo sapiens) (UniProt P11802)
[28] = test system: Phosphatidylinositol 4,5-bisphosphate 3-kinase catalytic subunit alpha isoform (Homo sapiens), P42336 [I800L]
[29] = test system: Tyrosine-protein kinase ABL1 (Homo sapiens), P00519 [E255K]
[30] = test system: Epidermal growth factor receptor (Homo sapiens), P00533 [G719C]

Casein kinase I isoform epsilon (Homo sapiens), sequence (P49674 whole entry, looked up, canonical isoform): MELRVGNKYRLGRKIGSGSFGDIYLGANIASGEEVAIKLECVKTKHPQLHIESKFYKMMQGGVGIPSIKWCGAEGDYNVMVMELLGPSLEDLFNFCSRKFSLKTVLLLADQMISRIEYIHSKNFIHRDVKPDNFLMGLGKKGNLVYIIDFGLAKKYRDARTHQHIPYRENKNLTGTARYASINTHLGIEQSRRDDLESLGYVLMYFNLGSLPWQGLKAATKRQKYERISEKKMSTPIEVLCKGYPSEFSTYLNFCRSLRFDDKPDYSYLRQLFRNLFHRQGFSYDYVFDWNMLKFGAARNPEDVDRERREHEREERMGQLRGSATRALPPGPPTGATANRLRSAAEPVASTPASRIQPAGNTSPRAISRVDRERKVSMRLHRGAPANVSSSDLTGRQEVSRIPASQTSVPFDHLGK

SMILES	residual activity [1]	residual activity [2]	residual activity [3]	residual activity [4]	residual activity [5]	residual activity [6]	residual activity [7]	residual activity [8]	residual activity [9]	residual activity [10]	residual activity [11]	residual activity [12]	residual activity [13]	residual activity [14]	residual activity [15]	residual activity [16]	residual activity [17]	residual activity [18]	residual activity [19]	residual activity [20]	also measured
CCOC(=O)c1cc2cc(-c3cc(C(=O)NCc4ccc(C(=O)O)cc4)nn3C)ccc2[nH]1 [BI 4394]	93%	100%	82%	91%	99%	87%	100%	70%	79%	88%	81%	93%	100%	100%	87%	75%	96%	81%	66%	91%	residual activity [21]: 100%; residual activity [22]: 100%; residual activity [23]: 92%; residual activity [24]: 90%; residual activity [25]: 96%; residual activity [26]: 91%; residual activity [27]: 74%; residual activity [28]: 93%; residual activity [29]: 88%; residual activity [30]: 100%
Cn1nc(C(=O)NCc2ccc(C(=O)O)cc2)cc1-c1ccc2[nH]ccc2c1 [BI 4395]	100%	80%	65%	90%	100%	80%	88%	100%	90%	100%	77%	88%	95%	86%	80%	33%	91%	100%	100%	83%	residual activity [21]: 62%; residual activity [22]: 91%; residual activity [23]: 82%; residual activity [24]: 77%; residual activity [25]: 81%; residual activity [26]: 76%; residual activity [27]: 88%; residual activity [28]: 100%; residual activity [29]: 65%; residual activity [30]: 76%
